US12263248B2, “Compounds and compositions for intracellular delivery of therapeutic agents” (ModernaTX, Inc., priority 2018, dated 2025)
Marks after values point to notes of the source that are not given here.

How the values were obtained:
[1] = Particle size and polydispersity index of nanoparticle compositions (Zetasizer Nano ZS); type: physicochemical
Procedure, shortened: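 Zetasizer Nano ZS; samples in 1×PBS; read-out: particle size plus polydispersity index.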

[2] = system: luciferase (Luc) mRNA; assay: Luc expression in liver, lung, spleen and femur 6 hours after intravenous administration; type: in vivo; details: mice, 0.5 mpk; for Total Flux Femur / Total Flux Liver / Total Flux Lung / Total Flux Spleen: intravenous
Procedure, shortened: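 LNP-formulated mRNA given IV to mice (n=3) at 0.5 mpk; at 6 h, bioluminescence imaged ex vivo 15 min after IP D-luciferin (15 mg/mL, 200 μL), organs imaged within 25 min. Values are total flux by region of interest.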

[3] = system: IL-6, IP-10; assay: Cytokine induction in mice upon intravenous administration; type: in vivo; set-up: Cytokine induction IL-6 / Cytokine induction IP-10: unit not given here; details: 0.5 mpk, 6 hours; for Cytokine induction IL-6 / Cytokine induction IP-10: intravenous; for IL-6 induction / IP-10 induction: i.v., in words
Procedure, shortened: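 IL-6 and IP-10 concentrations determined 6 hours after a single intravenous 0.5 mpk dose of lipid nanoparticle formulation in mice, with MC3 and PBS as comparators.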

[4] = system: luciferase mRNA; assay: Luciferase expression after subcutaneous administration to mice; type: in vivo, female CD-1 mice; details: for Novel lipid/MC3 expression ratio, 6 hr. time point, s.c. Luc 0.5 mpk / Novel lipid/MC3 expression ratio, s.c. Luc 0.5 mpk (AUC) / Lipid/MC3 AUC ratio / AUC (luciferase expression): 0.5 mpk; for Lipid/MC3 AUC ratio: luciferase; for AUC (luciferase expression): whole body BLI; for Novel lipid/MC3 ratio, s.c. Luc 6 hr.: relative to MC3, Table 3G
Protocol: The effect of the lipids of the disclosure on protein expression upon subcutaneous administration was studied. Formulations containing lipids of the disclosure and an mRNA expressing luciferase or hEPO were administered subcutaneously to female CD-1 mice at 0.5 mpk. Expression levels were obtained via whole body luminescent imaging (BLI) at 3, 6 and 24 hours after injection and expression levels in liver, spleen and at the injection site were evaluated ex vivo after 24 hours. […] See also Tables 35 and 36, and FIGS. 19 and 27.
Table 35 summarizes the luciferase expression levels using various nanoparticle compositions of the disclosure, and the luciferase expression levels using various nanoparticle compositions of the disclosure as compared to the luciferase expression level using an MC3 formulation after subcutaneous administration, as described above.

[5] = Table 1A, lipid:DSPC:cholesterol:PEG-DMG 50:10:38.5:1.5 mol %
[6] = Table 1E, compositions for subcutaneous administration
[7] = Table 1C, compositions for subcutaneous administration
[8] = Table 1B, formulated with hEPO mRNA

SMILES	PDI ([1]; Table 1A)	Size (nm) [1, 5]	Total Flux Femur [2]	Total Flux Liver [2]	Total Flux Lung [2]	Total Flux Spleen [2]	Cytokine induction IL-6 [3]	Cytokine induction IP-10 [3]	further results
CCCCCCCCCCCCCCN(CCO)CCCCCCCC(=O)OC(CCCCCCCC)CCCCCCCC [Compound 2, Heptadecan-9-yl 8-((2-hydroxyethyl)(tetradecyl)amino)octanoate]	0.14	83.9 nm	3.86E+06	4.87E+09	2.52E+07	5.77E+07	70.95	468.86	–
CCCCCCCCCN(CCO)CCCCCCCC(=O)OC(CCCCCCCC)CCCCCCCC [Compound 3, Heptadecan-9-yl 8-((2-hydroxyethyl)(nonyl)amino)octanoate]	0.20	97.5 nm	7.36E+06	1.39E+10	4.76E+07	1.47E+08	282.88	2052.87	Flux in the liver ([2]; i.v., in words): highest; IL-6 induction [3]: highest; IP-10 induction [3]: highest
CCCCCCCCC(CCCCCCCC)OC(=O)CCCCCCCN(CCO)CCCCCC [Compound 5, Heptadecan-9-yl 8-(hexyl(2-hydroxyethyl)amino)octanoate]	0.21	196.4 nm	1.22E+06	5.84E+07	1.89E+06	1.55E+08	94.07	487.16	–
CCCCCCCCCN(CCCO)CCCCCCCC(=O)OC(CCCCCCCC)CCCCCCCC [Compound 7, Heptadecan-9-yl 8-((3-hydroxypropyl)(nonyl)amino)octanoate]	0.22	118.9 nm	–	2.49E+09	3.95E+07	4.83E+08	116.35	4959.16	Flux in the spleen ([2]; i.v., in words): highest; IP-10 induction [3]: highest; Novel lipid/MC3 expression ratio, 6 hr. time point, s.c. Luc 0.05 mpk ([4]; 0.05 mpk, relative to MC3): 2.40; Novel lipid/MC3 expression ratio, 6 hr. time point, s.c. Luc 0.5 mpk ([4]; relative to MC3): 2.29
CCCCCCCCCOC(=O)CCCCCCCN(CCCCCCCC(=O)OC(CCCCCCCC)CCCCCCCC)C[C@H](C)O [Compound 12, Heptadecan-9-yl (S)-8-((2-hydroxypropyl)(8-(nonyloxy)-8-oxooctyl)amino)octanoate]	0.17	116.7 nm	–	6.84E+08	7.45E+06	6.82E+07	3.88	32.03	IL-6 induction [3]: lowest; IP-10 induction [3]: lowest
CCCCCCCCC(CCCCCCCC)OC(=O)CCCCCCCN(CCO)CCCCCCCC(=O)OCC1CC1CCCCCC (centres unmarked) [Compound 28, Heptadecan-9-yl 8-((8-((2-hexylcyclopropyl)methoxy)-8-oxooctyl)(2-hydroxyethyl)amino)octanoate]	0.20	99.4 nm	–	1.22E+10	2.17E+08	1.80E+08	17.47	283.13	Flux in the liver ([2]; i.v., in words): highest; IL-6 induction [3]: lowest
CCCCCCCCC(CCC)OC(=O)CCCCCCCN(CCO)CCCCCCCC(=O)OC(CCCCCCCC)CCCCCCCC (centres unmarked) [Compound 50, dodecan-4-yl 8-((8-(heptadecan-9-yloxy)-8-oxooctyl)(2-hydroxyethyl)amino)octanoate]	0.100	68.4 nm	–	6.30E+09	2.81E+07	1.14E+08	–	–	–
CCCC/C=C\CCC(CC/C=C\CCCC)OC(=O)CCCCCCCN(CCO)CCCCCC(=O)OCCCCCCCCCCC [Compound 61, (5Z,12Z)-heptadeca-5,12-dien-9-yl 8-((2-hydroxyethyl)(6-oxo-6-(undecyloxy)hexyl)amino)octanoate]	0.15	82.1 nm	–	6.37E+08	3.56E+06	1.61E+07	–	–	PDI [1, 6]: 0.08; Size (nm) [1, 6]: 80.0 nm; Novel lipid/MC3 expression ratio, 6 hr. time point, s.c. Luc 0.5 mpk ([4]; relative to MC3): 0.70
CCCCCCCCC(CC)OC(=O)CCCN(CCO)CCCCCCCC(=O)OC(CCCCCCCC)CCCCCCCC (centres unmarked) [Compound 72, Heptadecan-9-yl 8-((2-hydroxyethyl)(4-oxo-4-(undecan-3-yloxy)butyl)amino)octanoate]	0.10	76.8 nm	–	7.97E+08	1.05E+07	6.40E+06	–	–	PDI [1, 7]: 0.10; Size (nm) [1, 7]: 77.3 nm; Novel lipid/MC3 expression ratio, s.c. Luc 0.5 mpk (AUC) ([4]; relative to MC3): (AUC: 2.01); Lipid/MC3 AUC ratio [4]: 2.01; AUC (luciferase expression) [4]: 3.4417E+10 (p/s) * h; Novel lipid/MC3 ratio, s.c. Luc 6 hr. [4]: 2.18
CCCCCCCCC(CC)OC(=O)CCCCCN(CCO)CCCCCCCC(=O)OC(CCCCCCCC)CCCCCCCC (centres unmarked) [Compound 75, Heptadecan-9-yl 8-((2-hydroxyethyl)(6-oxo-6-(undecan-3-yloxy)hexyl)amino)octanoate]	0.17	92.1 nm	–	1.45E+09	3.92E+06	5.66E+06	–	–	PDI [1, 7]: 0.13; Size (nm) [1, 7]: 88.6 nm; Novel lipid/MC3 expression ratio, s.c. Luc 0.5 mpk (AUC) ([4]; relative to MC3): (AUC: 3.05); Lipid/MC3 AUC ratio [4]: 3.05; AUC (luciferase expression) [4]: 5.2262E+10 (p/s) * h; Novel lipid/MC3 ratio, s.c. Luc 6 hr. [4]: 3.08
CCCCCCCCCOC(=O)CCCCCCCN(CCCCCCCC(=O)OC(CCCCCCCC)CCCCCCCC)CCCNC(=S)NC [Compound 113, Heptadecan-9-yl 8-((3-(3-methylthioureido)propyl)(8-(nonyloxy)-8-oxooctyl)amino)octanoate]	0.13	86.8 nm	–	1.11E+09	5.55E+06	5.22E+07	–	–	PDI [1, 7]: 0.14; Size (nm) [1, 7]: 83.9 nm; Novel lipid/MC3 expression ratio, s.c. Luc 0.5 mpk (AUC) ([4]; relative to MC3): (AUC: 4.30); Lipid/MC3 AUC ratio [4]: 4.30; AUC (luciferase expression) [4]: 7.3721E+10 (p/s) * h; Novel lipid/MC3 ratio, s.c. Luc 6 hr. [4]: 4.53
CCCCCCCCC(CCCCCCCC)OC(=O)CCCCCCCN(CCO)CCCCCC(=O)OC(CCCCCCCC)C1CC1 (centres unmarked) [Compound 128, Heptadecan-9-yl 8-((6-((1-cyclopropylnonyl)oxy)-6-oxohexyl)(2-hydroxyethyl)amino)octanoate]	0.22	104.1 nm	–	5.98E+09	2.16E+07	7.09E+07	–	–	PDI [1, 6]: 0.13; Size (nm) [1, 6]: 73.9 nm; Novel lipid/MC3 expression ratio, 6 hr. time point, s.c. Luc 0.5 mpk ([4]; relative to MC3): 0.47
CCCCCCCC/C=C\COC(=O)CCCCCN(CCO)CCCCCC(=O)OC/C=C\CCCCCCCC [Compound 140, Di((Z)-undec-2-en-1-yl) 6,6′-((2-hydroxyethyl)azanediyl)dihexanoate]	0.84	120.3 nm	3.26E+04	4.21E+05	2.14E+04	2.22E+05	282.82	187.83	–
CCCCCCCCCOC(=O)CCCCCCCN(CCO)CCCCCCC(=O)OCC(CCCCCCCC)CCCCCCCC [Compound 143, Nonyl 8-((2-hydroxyethyl)(7-((2-octyldecyl)oxy)-7-oxoheptyl)amino)octanoate]	0.21	98.8 nm	–	1.76E+09	3.60E+07	1.42E+08	6.245	209.63	–
CCCCCCCCCOC(=O)CCCCCCCN(CCO)CCCCCCCC(=O)N(CCCCCCCC)CCCCCCCC [Compound 144, Nonyl 8-((8-(dioctylamino)-8-oxooctyl)(2-hydroxyethyl)amino)octanoate]	0.22	135.9 nm	2.44E+06	3.75E+08	4.81E+06	5.11E+07	319.46	4220.55	–
CCCCCCCCCOC(=O)CCCCCCCN(CCO)CCCCCCCCCC(=O)OC(CCCCCC)CCCCCC [Compound 147, Tridecan-7-yl 10-((2-hydroxyethyl)(8-(nonyloxy)-8-oxooctyl)amino)decanoate]	0.130	99.5 nm	–	5.24E+09	6.73E+06	8.57E+07	–	–	PDI [1, 8]: 0.22; Size (nm) [1, 8]: 111.9 nm
